The record followed here is PubChem BioAssay (NCI).

The structures appear in SMILES notation.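 Protocol summary: plate cells (96-well), add compound at 5 concentrations, incubate 48 h, interpolate endpoints linearly. At the GI50, growth is halved. TGI marks complete inhibition of growth.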

Test systems include A498 renal; ACHN renal; HL-60(TB) leukemia; HT29 colon; K-562 leukemia; MCF7 breast; NCI-H460 lung; OVCAR-4 ovarian; RXF 393 renal; SF-268 CNS.
Common to all, as to test: NCI tumour cell line growth inhibition, 48 h

Turning to `CCOc1ccc(/C=C2\N=C(c3ccc([N+](=O)[O-])cc3)OC2=O)cc1`, the TGI with A498 renal, in the experiment on ACHN renal, in the experiment on HL-60(TB) leukemia, with HT29 colon, with K-562 leukemia and in the experiment with MCF7 breast was greater than 100 µM in each case. Also, the TGI in the experiment on NCI-H460 lung, in the experiment with OVCAR-4 ovarian, in the experiment with RXF 393 renal and in the experiment with SF-268 CNS was greater than 100 µM each time.
With `N=c1c2c(-c3ccccc3)c(-c3ccccc3)n(Cc3ccccc3)c2ncn1C1CCC(O)CC1` (stereo not given), the GI50 was 0.345 µM with A498 renal; 0.0653 µM in the experiment on ACHN renal; 1.19 µM in the experiment with HL-60(TB) leukemia; 0.0772 µM in the experiment with HT29 colon; 0.0976 µM in the experiment on K-562 leukemia; 0.278 µM in the experiment on MCF7 breast. The GI50 is 0.0542 µM in the experiment on NCI-H460 lung, 1.43 µM in the experiment on OVCAR-4 ovarian, 0.374 µM with RXF 393 renal and 0.118 µM in the experiment on SF-268 CNS. Besides, the TGI with A498 renal was 14.4 µM; with ACHN renal it was 12.8 µM; in the experiment on HL-60(TB) leukemia it was 3.66 µM; in the experiment on HT29 colon, 2.49 µM; in the experiment with K-562 leukemia, 2.64 µM; in the experiment with MCF7 breast, 2.36 µM. Besides, the TGI in the experiment with NCI-H460 lung turned out to be 1.5 µM; with OVCAR-4 ovarian it was 13.1 µM; with RXF 393 renal it was 2.4 µM; in the experiment with SF-268 CNS, 15 µM.
On to `NS(=O)(=O)c1ccc(N=Nc2c(O)c(C(=O)O)cc3ccccc23)cc1`, for which the TGI with A498 renal, in the experiment on ACHN renal, in the experiment on HL-60(TB) leukemia, in the experiment with HT29 colon, in the experiment on K-562 leukemia and in the experiment on MCF7 breast was greater than 100 µM in each case. Besides, the TGI in the experiment on NCI-H460 lung, in the experiment on OVCAR-4 ovarian, in the experiment with RXF 393 renal and in the experiment on SF-268 CNS was greater than 100 µM in each case.
For `CCN(CC)CCNc1nc(N)c(C#N)c(C#N)c1C#N`, the TGI in the experiment on A498 renal, with ACHN renal, in the experiment with HL-60(TB) leukemia, in the experiment on HT29 colon, with K-562 leukemia and with MCF7 breast was greater than 10 µM throughout. For the same molecule, the TGI in the experiment on NCI-H460 lung, in the experiment with OVCAR-4 ovarian, with RXF 393 renal and in the experiment on SF-268 CNS was greater than 10 µM each time.
Regarding `O=C(c1ccco1)c1c(C(F)(F)F)nc2ccc(Cl)cc2[n+]1[O-]`, the GI50 in the experiment on A498 renal was 23.1 µM; in the experiment on ACHN renal, greater than 100 µM; in the experiment with HL-60(TB) leukemia it was 25.2 µM; in the experiment on HT29 colon, greater than 100 µM; in the experiment on K-562 leukemia, 33.2 µM; in the experiment with MCF7 breast, greater than 100 µM. Moreover, the GI50 was greater than 100 µM with NCI-H460 lung, greater than 100 µM with OVCAR-4 ovarian, 70.3 µM in the experiment with RXF 393 renal and greater than 100 µM with SF-268 CNS. Also, the TGI in the experiment on A498 renal is 68 µM; in the experiment with ACHN renal, greater than 100 µM; with HL-60(TB) leukemia it was 85.1 µM; in the experiment with HT29 colon, greater than 100 µM; in the experiment with K-562 leukemia, greater than 100 µM; in the experiment with MCF7 breast, greater than 100 µM. Moreover, the TGI in the experiment on NCI-H460 lung, in the experiment on OVCAR-4 ovarian, with RXF 393 renal and in the experiment with SF-268 CNS was greater than 100 µM in each case.
Turning to `CCN1CCN(c2cc(C)c3cc(NC(=O)c4ccc(OC)c(OC)c4)ccc3n2)CC1`, the GI50 with A498 renal was 16.4 µM; with ACHN renal it was greater than 34.4 µM; with HL-60(TB) leukemia it was 4.19 µM; with HT29 colon, 1.31 µM; with K-562 leukemia, 2.75 µM; with MCF7 breast, 0.572 µM. The GI50 was 10.5 µM with NCI-H460 lung, 11 µM in the experiment on OVCAR-4 ovarian, 2.81 µM in the experiment on RXF 393 renal and 9.19 µM with SF-268 CNS. The TGI with A498 renal was 41.1 µM; with ACHN renal, greater than 100 µM; in the experiment with HL-60(TB) leukemia, greater than 44.8 µM; in the experiment on HT29 colon, greater than 100 µM; with K-562 leukemia, greater than 100 µM; in the experiment with MCF7 breast, greater than 100 µM. For the same molecule, the TGI with NCI-H460 lung was 31.3 µM; in the experiment with OVCAR-4 ovarian, greater than 100 µM; with RXF 393 renal, greater than 100 µM; in the experiment on SF-268 CNS, greater than 75.1 µM.
Turning to `O=c1oc2ccc(-c3ccc(F)cc3F)cc2c(=O)n1-c1cccc(C(F)(F)F)c1`, the GI50 was 0.21 µM in the experiment on A498 renal; 2.25 µM with ACHN renal; 1.33 µM in the experiment on HL-60(TB) leukemia; 3.24 µM with HT29 colon; 1.2 µM in the experiment with K-562 leukemia; 3.22 µM in the experiment with MCF7 breast. The GI50 was 0.999 µM in the experiment with NCI-H460 lung, 1.67 µM in the experiment on OVCAR-4 ovarian, 1.23 µM with RXF 393 renal and 1.23 µM in the experiment on SF-268 CNS. For the same molecule, the TGI was 0.888 µM with A498 renal; 8.37 µM with ACHN renal; 3.89 µM in the experiment with HL-60(TB) leukemia; 11.7 µM with HT29 colon; 18.2 µM with K-562 leukemia; greater than 100 µM in the experiment on MCF7 breast. Moreover, the TGI in the experiment on NCI-H460 lung stood at 10.3 µM; in the experiment on OVCAR-4 ovarian, 13.6 µM; in the experiment on RXF 393 renal it was 4.14 µM; with SF-268 CNS, 8.21 µM.
Regarding `S=c1[nH]c(=S)c2cc3ccccc3nc2[nH]1`, the GI50 was greater than 100 µM in the experiment with A498 renal; greater than 100 µM in the experiment with ACHN renal; 38 µM in the experiment with HL-60(TB) leukemia; greater than 100 µM with HT29 colon; greater than 100 µM in the experiment with K-562 leukemia; 5.33 µM in the experiment on MCF7 breast. Also, the GI50 is 73.2 µM with NCI-H460 lung, greater than 100 µM in the experiment on OVCAR-4 ovarian, greater than 100 µM in the experiment on RXF 393 renal and 39.4 µM in the experiment with SF-268 CNS. For the same molecule, the TGI in the experiment on A498 renal, with ACHN renal, in the experiment with HL-60(TB) leukemia, in the experiment on HT29 colon, with K-562 leukemia and in the experiment on MCF7 breast was greater than 100 µM in each case. Besides, the TGI in the experiment on NCI-H460 lung, with OVCAR-4 ovarian, in the experiment on RXF 393 renal and in the experiment on SF-268 CNS was greater than 100 µM in each case.
Regarding `CCC[CH2][Sn]([CH2]CCC)([O]C(=O)c1ccc(OC)c(OC)c1OC)[O][Sn]([CH2]CCC)([CH2]CCC)[O]C(=O)c1ccc(OC)c(OC)c1OC`, the GI50 in the experiment with A498 renal is 0.284 µM; with ACHN renal it was 0.259 µM; with HL-60(TB) leukemia, 0.112 µM; with HT29 colon, 0.831 µM; with K-562 leukemia it was 0.0416 µM; in the experiment on MCF7 breast it was 0.133 µM. Moreover, the GI50 with NCI-H460 lung was 0.895 µM; with OVCAR-4 ovarian, 0.618 µM; in the experiment with RXF 393 renal, 0.153 µM; with SF-268 CNS, 0.187 µM. For the same molecule, the TGI with A498 renal stood at 1.25 µM; with ACHN renal, 0.583 µM; in the experiment on HL-60(TB) leukemia, 0.554 µM; with HT29 colon, 2.31 µM; in the experiment on K-562 leukemia, 1.86 µM; in the experiment with MCF7 breast it was 1.28 µM. In addition, the TGI in the experiment with NCI-H460 lung came to 2.55 µM; in the experiment with OVCAR-4 ovarian, 1.87 µM; in the experiment with RXF 393 renal, 0.38 µM; in the experiment on SF-268 CNS, 0.842 µM.
